Key:
[1] = test system: Tyrosine-protein kinase ABL1 (Homo sapiens), P00519 [H396P]
[2] = target: T1, Serine/threonine-protein kinase 17A (Homo sapiens) (UniProt Q9UEE5)
T1 sequence (whole entry): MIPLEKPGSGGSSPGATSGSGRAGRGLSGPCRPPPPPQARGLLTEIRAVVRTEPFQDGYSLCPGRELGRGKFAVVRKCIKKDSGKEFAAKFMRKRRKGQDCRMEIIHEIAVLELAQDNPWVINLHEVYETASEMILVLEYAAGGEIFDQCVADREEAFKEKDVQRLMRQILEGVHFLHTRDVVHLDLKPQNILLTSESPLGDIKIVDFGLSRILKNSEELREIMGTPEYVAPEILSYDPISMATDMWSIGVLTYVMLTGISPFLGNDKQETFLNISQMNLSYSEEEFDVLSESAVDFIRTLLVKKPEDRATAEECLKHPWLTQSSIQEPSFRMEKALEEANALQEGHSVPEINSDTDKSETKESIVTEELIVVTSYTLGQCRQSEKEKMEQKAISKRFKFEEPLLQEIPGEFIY

[3] = target: Ephrin type-A receptor 6 (Homo sapiens) (UniProt Q9UF33)
Sequence of Ephrin type-A receptor 6 (Homo sapiens) (Q9UF33 whole entry): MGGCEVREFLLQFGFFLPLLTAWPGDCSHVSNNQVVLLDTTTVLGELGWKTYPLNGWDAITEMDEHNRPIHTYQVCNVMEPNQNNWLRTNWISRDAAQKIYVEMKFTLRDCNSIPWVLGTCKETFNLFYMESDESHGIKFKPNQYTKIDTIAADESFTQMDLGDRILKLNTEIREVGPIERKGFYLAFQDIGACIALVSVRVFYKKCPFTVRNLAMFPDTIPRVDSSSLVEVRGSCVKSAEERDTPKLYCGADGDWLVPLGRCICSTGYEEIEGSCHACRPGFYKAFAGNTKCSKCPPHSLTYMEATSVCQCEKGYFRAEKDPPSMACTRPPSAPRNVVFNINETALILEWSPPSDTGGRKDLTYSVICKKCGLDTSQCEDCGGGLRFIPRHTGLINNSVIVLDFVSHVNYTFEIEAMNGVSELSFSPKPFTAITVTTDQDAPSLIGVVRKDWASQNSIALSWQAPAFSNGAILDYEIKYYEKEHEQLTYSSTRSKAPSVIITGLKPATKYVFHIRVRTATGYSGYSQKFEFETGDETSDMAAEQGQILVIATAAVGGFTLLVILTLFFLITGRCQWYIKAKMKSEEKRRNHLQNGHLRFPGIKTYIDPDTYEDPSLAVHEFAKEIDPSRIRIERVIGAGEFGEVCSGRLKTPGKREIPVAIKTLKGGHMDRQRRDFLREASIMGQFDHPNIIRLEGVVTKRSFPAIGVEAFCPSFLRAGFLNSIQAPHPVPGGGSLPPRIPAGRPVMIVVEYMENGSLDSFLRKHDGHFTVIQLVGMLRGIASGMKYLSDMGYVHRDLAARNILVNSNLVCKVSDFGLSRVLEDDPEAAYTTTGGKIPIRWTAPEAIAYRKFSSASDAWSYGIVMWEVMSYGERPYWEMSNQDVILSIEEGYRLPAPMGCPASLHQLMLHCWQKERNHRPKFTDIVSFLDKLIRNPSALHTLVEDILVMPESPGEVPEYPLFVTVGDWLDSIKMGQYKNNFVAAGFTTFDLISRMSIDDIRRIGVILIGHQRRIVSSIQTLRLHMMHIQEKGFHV

[4] = target: Serine/threonine-protein kinase WNK4 (Homo sapiens) (UniProt Q96J92)
[5] = test system: Mast/stem cell growth factor receptor Kit (Homo sapiens), P10721 [V559D,T670I]
Sequence of Mast/stem cell growth factor receptor Kit (Homo sapiens), P10721 [V559D,T670I] (P10721 whole entry V559D/T670I): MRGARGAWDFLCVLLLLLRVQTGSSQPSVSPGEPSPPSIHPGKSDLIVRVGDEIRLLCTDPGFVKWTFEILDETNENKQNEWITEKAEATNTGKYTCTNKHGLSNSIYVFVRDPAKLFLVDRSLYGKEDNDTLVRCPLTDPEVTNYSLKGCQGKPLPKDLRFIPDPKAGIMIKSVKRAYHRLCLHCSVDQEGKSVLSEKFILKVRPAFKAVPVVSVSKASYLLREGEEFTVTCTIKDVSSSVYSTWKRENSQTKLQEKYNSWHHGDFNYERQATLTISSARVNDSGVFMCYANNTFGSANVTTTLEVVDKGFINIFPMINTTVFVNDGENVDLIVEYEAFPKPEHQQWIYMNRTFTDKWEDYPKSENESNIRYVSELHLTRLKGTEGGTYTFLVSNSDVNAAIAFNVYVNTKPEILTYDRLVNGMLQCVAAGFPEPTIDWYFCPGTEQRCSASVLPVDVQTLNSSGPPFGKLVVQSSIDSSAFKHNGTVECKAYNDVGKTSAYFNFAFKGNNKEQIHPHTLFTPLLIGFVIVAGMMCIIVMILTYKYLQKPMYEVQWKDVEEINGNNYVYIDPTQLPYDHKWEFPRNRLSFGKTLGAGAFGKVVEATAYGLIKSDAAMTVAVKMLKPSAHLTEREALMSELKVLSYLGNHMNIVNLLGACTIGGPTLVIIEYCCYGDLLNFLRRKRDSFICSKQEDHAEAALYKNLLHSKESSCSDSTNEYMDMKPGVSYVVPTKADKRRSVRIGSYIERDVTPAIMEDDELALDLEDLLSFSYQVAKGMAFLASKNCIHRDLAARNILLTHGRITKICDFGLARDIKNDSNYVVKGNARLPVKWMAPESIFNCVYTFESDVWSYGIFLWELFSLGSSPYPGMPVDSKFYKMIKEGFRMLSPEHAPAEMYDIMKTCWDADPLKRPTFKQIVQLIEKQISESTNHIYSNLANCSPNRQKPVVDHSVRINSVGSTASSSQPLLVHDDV

[6] = target: Phosphatidylinositol 4-phosphate 5-kinase type-1 alpha (Homo sapiens) (UniProt Q99755)
[7] = target: Focal adhesion kinase 1 (Homo sapiens) (UniProt Q05397)
Sequence of Focal adhesion kinase 1 (Homo sapiens) (Q05397 2-1052 limits assumed): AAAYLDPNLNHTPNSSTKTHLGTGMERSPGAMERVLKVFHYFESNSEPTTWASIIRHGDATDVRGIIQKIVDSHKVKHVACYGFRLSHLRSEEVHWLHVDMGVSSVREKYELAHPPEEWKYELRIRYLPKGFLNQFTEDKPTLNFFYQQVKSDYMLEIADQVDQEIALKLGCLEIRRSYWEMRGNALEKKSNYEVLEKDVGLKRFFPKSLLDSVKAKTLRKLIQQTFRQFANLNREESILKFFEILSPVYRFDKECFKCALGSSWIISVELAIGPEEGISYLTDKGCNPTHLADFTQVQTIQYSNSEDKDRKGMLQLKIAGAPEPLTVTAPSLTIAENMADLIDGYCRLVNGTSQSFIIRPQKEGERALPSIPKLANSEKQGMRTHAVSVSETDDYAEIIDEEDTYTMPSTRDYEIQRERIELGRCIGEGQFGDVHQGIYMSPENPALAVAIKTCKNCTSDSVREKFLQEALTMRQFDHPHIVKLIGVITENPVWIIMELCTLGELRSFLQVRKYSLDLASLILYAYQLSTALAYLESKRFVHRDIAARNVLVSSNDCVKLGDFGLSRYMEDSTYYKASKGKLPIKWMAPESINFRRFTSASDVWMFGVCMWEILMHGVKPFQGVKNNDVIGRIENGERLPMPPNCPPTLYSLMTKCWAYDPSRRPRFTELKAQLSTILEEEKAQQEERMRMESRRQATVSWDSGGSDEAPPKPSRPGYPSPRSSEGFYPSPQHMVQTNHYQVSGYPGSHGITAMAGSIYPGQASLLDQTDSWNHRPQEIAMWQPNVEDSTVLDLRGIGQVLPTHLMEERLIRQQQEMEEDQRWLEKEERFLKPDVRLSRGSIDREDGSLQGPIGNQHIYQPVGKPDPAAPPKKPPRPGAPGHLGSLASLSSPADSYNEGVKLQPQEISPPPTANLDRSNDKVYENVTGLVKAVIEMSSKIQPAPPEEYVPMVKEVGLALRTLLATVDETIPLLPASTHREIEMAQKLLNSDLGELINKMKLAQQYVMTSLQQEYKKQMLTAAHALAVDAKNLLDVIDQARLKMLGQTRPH

[8] = target: T2, TGF-beta receptor type-1 (Homo sapiens) (UniProt P36897)
T2 sequence (whole entry): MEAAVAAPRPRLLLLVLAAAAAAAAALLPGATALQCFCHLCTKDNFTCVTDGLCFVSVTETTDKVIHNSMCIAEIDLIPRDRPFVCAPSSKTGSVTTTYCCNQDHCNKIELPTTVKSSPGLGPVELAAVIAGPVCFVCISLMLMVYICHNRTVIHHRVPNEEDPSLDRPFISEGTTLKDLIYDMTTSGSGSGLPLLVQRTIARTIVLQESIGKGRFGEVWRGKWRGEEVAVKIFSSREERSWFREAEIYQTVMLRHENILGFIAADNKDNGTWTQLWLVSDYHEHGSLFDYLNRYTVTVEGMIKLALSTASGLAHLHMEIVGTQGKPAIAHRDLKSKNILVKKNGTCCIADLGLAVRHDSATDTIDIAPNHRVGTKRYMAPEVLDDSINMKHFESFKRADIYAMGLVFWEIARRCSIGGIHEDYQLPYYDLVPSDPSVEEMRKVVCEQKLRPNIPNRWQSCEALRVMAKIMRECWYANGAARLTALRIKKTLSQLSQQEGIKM

[9] = target: Ribosomal protein S6 kinase alpha-6 (Homo sapiens) (UniProt Q9UK32)
Sequence of Ribosomal protein S6 kinase alpha-6 (Homo sapiens) (Q9UK32 whole entry): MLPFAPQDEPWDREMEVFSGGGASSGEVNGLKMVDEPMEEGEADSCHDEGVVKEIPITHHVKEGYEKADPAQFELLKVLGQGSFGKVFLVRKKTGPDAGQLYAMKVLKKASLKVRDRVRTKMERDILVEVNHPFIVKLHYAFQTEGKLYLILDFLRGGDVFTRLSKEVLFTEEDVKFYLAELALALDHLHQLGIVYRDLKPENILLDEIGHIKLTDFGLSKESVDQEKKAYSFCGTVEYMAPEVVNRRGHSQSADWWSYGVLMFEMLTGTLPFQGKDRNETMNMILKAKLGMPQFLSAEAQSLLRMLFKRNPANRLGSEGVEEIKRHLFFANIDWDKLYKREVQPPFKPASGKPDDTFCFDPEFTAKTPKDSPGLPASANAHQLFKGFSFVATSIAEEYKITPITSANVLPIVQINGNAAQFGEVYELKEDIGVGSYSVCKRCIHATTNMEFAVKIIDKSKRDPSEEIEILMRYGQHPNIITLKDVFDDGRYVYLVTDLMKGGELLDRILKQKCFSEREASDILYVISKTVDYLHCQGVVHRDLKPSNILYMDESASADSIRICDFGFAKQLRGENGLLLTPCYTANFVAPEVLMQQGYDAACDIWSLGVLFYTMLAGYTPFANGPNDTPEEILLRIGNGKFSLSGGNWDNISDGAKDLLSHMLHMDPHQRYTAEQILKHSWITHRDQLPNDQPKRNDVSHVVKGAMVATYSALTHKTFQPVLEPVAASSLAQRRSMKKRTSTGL

[10] = target: T3, Activin receptor type-1B (Homo sapiens) (UniProt P36896)
T3 sequence (whole entry): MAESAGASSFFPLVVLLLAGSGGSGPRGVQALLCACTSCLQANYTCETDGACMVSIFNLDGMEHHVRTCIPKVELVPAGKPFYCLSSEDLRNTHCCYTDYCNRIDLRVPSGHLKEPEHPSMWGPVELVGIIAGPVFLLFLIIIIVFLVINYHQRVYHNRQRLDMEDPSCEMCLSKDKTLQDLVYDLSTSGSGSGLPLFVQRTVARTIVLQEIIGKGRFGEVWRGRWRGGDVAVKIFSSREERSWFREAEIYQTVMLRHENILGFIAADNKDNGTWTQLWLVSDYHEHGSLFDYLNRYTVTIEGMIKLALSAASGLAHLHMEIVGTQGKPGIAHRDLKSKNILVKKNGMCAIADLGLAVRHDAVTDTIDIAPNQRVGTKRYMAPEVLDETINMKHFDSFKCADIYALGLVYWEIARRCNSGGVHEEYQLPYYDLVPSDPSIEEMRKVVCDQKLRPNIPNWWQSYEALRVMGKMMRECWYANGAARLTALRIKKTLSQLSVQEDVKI

[11] = target: Interleukin-1 receptor-associated kinase 1 (Homo sapiens) (UniProt P51617)
Sequence of Interleukin-1 receptor-associated kinase 1 (Homo sapiens) (P51617 whole entry, looked up): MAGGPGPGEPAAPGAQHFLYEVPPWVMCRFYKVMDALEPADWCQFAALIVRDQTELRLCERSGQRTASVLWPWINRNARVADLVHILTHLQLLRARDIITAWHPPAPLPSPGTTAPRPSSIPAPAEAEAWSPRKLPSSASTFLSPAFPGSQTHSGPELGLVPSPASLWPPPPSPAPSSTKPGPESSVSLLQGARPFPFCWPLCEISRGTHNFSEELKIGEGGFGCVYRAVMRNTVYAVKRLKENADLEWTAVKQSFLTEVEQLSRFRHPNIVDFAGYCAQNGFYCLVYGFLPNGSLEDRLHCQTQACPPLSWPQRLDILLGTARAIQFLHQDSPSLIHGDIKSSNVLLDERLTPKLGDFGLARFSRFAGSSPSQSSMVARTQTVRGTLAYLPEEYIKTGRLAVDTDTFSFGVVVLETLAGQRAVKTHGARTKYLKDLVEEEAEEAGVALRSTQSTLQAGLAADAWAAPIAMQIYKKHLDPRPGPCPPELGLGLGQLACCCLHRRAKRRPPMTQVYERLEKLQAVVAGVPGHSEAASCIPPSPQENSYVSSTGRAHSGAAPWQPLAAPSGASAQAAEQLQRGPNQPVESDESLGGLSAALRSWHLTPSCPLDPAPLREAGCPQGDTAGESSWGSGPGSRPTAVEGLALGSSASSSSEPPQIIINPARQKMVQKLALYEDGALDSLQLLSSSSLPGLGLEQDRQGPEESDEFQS

[12] = target: T4, Serine/threonine-protein kinase Nek9 (Homo sapiens) (UniProt Q8TD19)
T4 sequence (whole entry): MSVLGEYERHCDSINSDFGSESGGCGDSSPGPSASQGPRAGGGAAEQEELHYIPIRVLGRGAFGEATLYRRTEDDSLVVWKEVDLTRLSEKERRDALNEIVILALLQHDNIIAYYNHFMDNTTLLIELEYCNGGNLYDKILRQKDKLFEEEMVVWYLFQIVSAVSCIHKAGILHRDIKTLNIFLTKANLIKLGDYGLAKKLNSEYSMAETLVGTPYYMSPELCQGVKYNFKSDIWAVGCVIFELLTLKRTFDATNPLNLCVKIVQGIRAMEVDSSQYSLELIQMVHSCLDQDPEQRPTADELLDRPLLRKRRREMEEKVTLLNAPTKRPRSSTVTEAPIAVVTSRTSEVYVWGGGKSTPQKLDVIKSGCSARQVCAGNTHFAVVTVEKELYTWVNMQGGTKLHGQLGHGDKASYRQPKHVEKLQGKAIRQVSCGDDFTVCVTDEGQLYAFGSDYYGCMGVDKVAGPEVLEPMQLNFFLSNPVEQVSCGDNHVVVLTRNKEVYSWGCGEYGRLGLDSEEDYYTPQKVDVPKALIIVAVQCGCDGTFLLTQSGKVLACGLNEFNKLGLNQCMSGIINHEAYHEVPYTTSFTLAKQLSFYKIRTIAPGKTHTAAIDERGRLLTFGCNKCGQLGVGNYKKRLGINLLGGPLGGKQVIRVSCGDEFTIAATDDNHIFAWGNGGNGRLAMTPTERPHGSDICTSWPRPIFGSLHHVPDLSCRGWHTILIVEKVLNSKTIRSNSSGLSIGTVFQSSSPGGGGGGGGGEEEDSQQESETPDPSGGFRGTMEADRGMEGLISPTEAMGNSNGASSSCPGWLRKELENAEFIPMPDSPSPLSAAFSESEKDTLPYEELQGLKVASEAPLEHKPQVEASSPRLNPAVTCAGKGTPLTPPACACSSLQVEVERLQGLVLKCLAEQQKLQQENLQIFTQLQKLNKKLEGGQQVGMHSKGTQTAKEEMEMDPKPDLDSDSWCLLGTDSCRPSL

[13] = target: Aurora kinase B (Homo sapiens) (UniProt Q96GD4)
Sequence of Aurora kinase B (Homo sapiens) (Q96GD4 whole entry): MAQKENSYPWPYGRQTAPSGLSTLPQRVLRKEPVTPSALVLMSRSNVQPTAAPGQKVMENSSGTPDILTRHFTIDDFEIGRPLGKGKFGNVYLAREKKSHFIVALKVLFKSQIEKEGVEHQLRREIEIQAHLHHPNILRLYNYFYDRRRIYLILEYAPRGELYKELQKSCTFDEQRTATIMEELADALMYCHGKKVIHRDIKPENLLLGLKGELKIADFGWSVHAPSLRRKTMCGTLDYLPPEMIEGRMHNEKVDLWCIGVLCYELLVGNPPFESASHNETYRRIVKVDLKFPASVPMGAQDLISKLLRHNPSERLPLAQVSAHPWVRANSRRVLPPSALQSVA

[14] = Compound concentration 1000.0 nM
[15] = Compound concentration 100.0 nM

Measured: residual activity

C[C@@H]1CN(c2cc(-c3nn(C)c4ccc(OC5(C)CC5)cc34)ncn2)C[C@H](C)O1 [MLi-2-NC]
inactive: [1]; [14] 75% | [2]; [14] 81% | [3]; [14] 100% | [4]; [14] 60% | [5]; [14] 100% | [6]; [14] 100% | [7]; [14] 95% | [8]; [14] 89% | [9]; [14] 79% | [10]; [14] 78% | [11]; [14] 67% | [12]; [14] 71% | [13]; [14] 94%

C[C@@H]1CN(c2cc(-c3n[nH]c4ccc(OC5(C)CC5)cc34)ncn2)C[C@H](C)O1 [MLi-2]
inactive: [1]; [15] 96% | [2]; [15] 100% | [3]; [15] 90% | [4]; [15] 94% | [5]; [15] 95% | [6]; [15] 100% | [7]; [15] 81% | [8]; [15] 100% | [9]; [15] 85% | [10]; [15] 90% | [11]; [15] 79% | [12]; [15] 100% | [13]; [15] 73%
